Assay results taken from patent publication US20170190671A1, “BIS(ARYL)CATECHOL DERIVATIVES AS HERBICIDES” (E I DU PONT DE NEMOURS AND COMPANY, priority 2014, published 2017).

What was measured:
Type in all cases: in vivo
[1] = system: ducksalad (Heteranthera limosa); assay: Test B flooded paddy; settings: Heteranthera limosa, 336 h; 250 g ai/ha, Flood, 13 to 15 days, scale 0 (no effect) to 100 (complete control); read-out: Plant response rating, Ducksalad
In short: (§1)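 In-water treatment: compound dosed into 3 cm flood over soil, water level unchanged throughout. Controls run alongside; visual assessment at day 13–15.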

[2] = system: barnyardgrass (Echinochloa crus-galli); assay: Test B flooded paddy; settings: Echinochloa crus-galli, 336 h; 250 g ai/ha, Flood, 13 to 15 days, scale 0 (no effect) to 100 (complete control); read-out: Plant response rating, Barnyardgrass
In short: as §1

rice (Oryza sativa) = assay: Test B flooded paddy; settings: Oryza sativa, 336 h; 250 g ai/ha, Flood, 13 to 15 days, scale 0 (no effect) to 100 (complete control); read-out: Plant response rating, Rice
In short: as §1

[3] = system: sedge, umbrella (small-flower umbrella sedge, Cyperus difformis); assay: Test B flooded paddy; settings: Cyperus difformis, 336 h; 250 g ai/ha, Flood, 13 to 15 days, scale 0 (no effect) to 100 (complete control); read-out: Plant response rating, Sedge, Umbrella
In short: as §1

[4] = system: ragweed (common ragweed, Ambrosia elatior); assay: Test A preemergence; settings: Ambrosia artemisiifolia, pre-emergence, 240 h, 0 to 100 scale (0 no effect, 100 complete control), read-out: Ragweed plant response rating; for pest or weed control at 31 g/ha: 31 g ai/ha; for pest or weed control at 125 g/ha: 125 g ai/ha
In short: (§2)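 Pre- and postemergence greenhouse screen. Soil: loam + sand. Spray carrier: solvent mixture, non-phytotoxic, with surfactant. Post timing at 1–2 leaves, height 2–10 cm. Readout: visual injury on a 0–100 scale roughly 10 days after application, untreated plants as reference.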

[5] = system: barnyardgrass (Echinochloa crus-galli); assay: Test A preemergence; settings: Echinochloa crus-galli, pre-emergence, 240 h; for pest or weed control at 31 g/ha: 31 g ai/ha; for pest or weed control at 125 g/ha: 125 g ai/ha
In short: as §2

[6] = system: pigweed (Amaranthus retroflexus); assay: Test A preemergence; settings: Amaranthus retroflexus, pre-emergence, 240 h, 0 to 100 scale (0 no effect, 100 complete control), read-out: Pigweed plant response rating; for pest or weed control at 31 g/ha: 31 g ai/ha; for pest or weed control at 125 g/ha: 125 g ai/ha
In short: as §2

kochia (Kochia scoparia) [7] = assay: Test A preemergence; settings: Bassia scoparia, pre-emergence, 240 h, 0 to 100 scale (0 no effect, 100 complete control), read-out: Kochia plant response rating; for pest or weed control at 31 g/ha: 31 g ai/ha; for pest or weed control at 125 g/ha: 125 g ai/ha
In short: as §2

[8] = system: giant foxtail (Setaria faberii); assay: Test A preemergence; settings: Setaria faberi, pre-emergence, 240 h, 0 to 100 scale (0 no effect, 100 complete control), read-out: Foxtail, Giant plant response rating; for pest or weed control at 31 g/ha: 31 g ai/ha; for pest or weed control at 125 g/ha: 125 g ai/ha
In short: as §2

[9] = system: Italian ryegrass (Lolium multiflorum); assay: Test A preemergence; settings: Lolium multiflorum, pre-emergence, 240 h, 0 to 100 scale (0 no effect, 100 complete control), read-out: Ryegrass, Italian plant response rating; for pest or weed control at 31 g/ha: 31 g ai/ha; for pest or weed control at 125 g/ha: 125 g ai/ha
In short: as §2

[10] = system: ragweed (common ragweed, Ambrosia elatior); assay: Test A postemergence; settings: Ambrosia artemisiifolia, post-emergence, 240 h, 0 to 100 scale, read-out: Plant response rating, Ragweed; for pest or weed control at 31 g/ha: 31 g ai/ha; for pest or weed control at 125 g/ha: 125 g ai/ha
In short: as §2

[11] = system: barnyardgrass (Echinochloa crus-galli); assay: Test A postemergence; settings: Echinochloa crus-galli, post-emergence, 240 h, 0 to 100 scale, read-out: Plant response rating, Barnyardgrass; for pest or weed control at 31 g/ha: 31 g ai/ha; for pest or weed control at 125 g/ha: 125 g ai/ha
In short: as §2

[12] = system: pigweed (Amaranthus retroflexus); assay: Test A postemergence; settings: Amaranthus retroflexus, post-emergence, 240 h, 0 to 100 scale, read-out: Plant response rating, Pigweed; for pest or weed control at 31 g/ha: 31 g ai/ha; for pest or weed control at 125 g/ha: 125 g ai/ha
In short: as §2

corn (Zea mays) = assay: Test A postemergence; settings: Zea mays, post-emergence, 240 h, 0 to 100 scale; for Corn plant response rating (crop injury, 0 = no effect, 100 = complete kill) at 31 g/ha: 31 g ai/ha; for Corn plant response rating (crop injury, 0 = no effect, 100 = complete kill) at 125 g/ha: 125 g ai/ha
In short: as §2

kochia (Kochia scoparia) [13] = assay: Test A postemergence; settings: Bassia scoparia, post-emergence, 240 h, 0 to 100 scale, read-out: Plant response rating, Kochia; for pest or weed control at 31 g/ha: 31 g ai/ha; for pest or weed control at 125 g/ha: 125 g ai/ha
In short: as §2

[14] = system: galium (catchweed bedstraw, Galium aparine); assay: Test A postemergence; settings: Galium, post-emergence, 240 h, 0 to 100 scale, read-out: Plant response rating, Galium; for pest or weed control at 31 g/ha: 31 g ai/ha; for pest or weed control at 125 g/ha: 125 g ai/ha
In short: as §2

[15] = system: giant foxtail (Setaria faberii); assay: Test A postemergence; settings: Setaria faberi, post-emergence, 240 h, 0 to 100 scale, read-out: Plant response rating, Foxtail, Giant; for pest or weed control at 31 g/ha: 31 g ai/ha; for pest or weed control at 125 g/ha: 125 g ai/ha
In short: as §2

[16] = system: Italian ryegrass (Lolium multiflorum); assay: Test A postemergence; settings: Lolium multiflorum, post-emergence, 240 h, 0 to 100 scale, read-out: Plant response rating, Ryegrass, Italian; for pest or weed control at 31 g/ha: 31 g ai/ha; for pest or weed control at 125 g/ha: 125 g ai/ha
In short: as §2

[17] = system: wheat (Triticum aestivum); assay: Test A postemergence; settings: Triticum aestivum, post-emergence, 240 h, 0 to 100 scale, read-out: Plant response rating, Wheat; for plant injury at 31 g/ha: 31 g ai/ha; for plant injury at 125 g/ha: 125 g ai/ha
In short: as §2

[18] = system: blackgrass (Alopecurus myosuroides); assay: Test A postemergence; settings: Alopecurus myosuroides, post-emergence, 240 h, 0 to 100 scale, read-out: Plant response rating, Blackgrass; for pest or weed control at 31 g/ha: 31 g ai/ha; for pest or weed control at 125 g/ha: 125 g ai/ha
In short: as §2

[19] = 0 to 100 scale (0 no effect, 100 complete control), read-out: Barnyardgrass plant response rating

Fc1ccc(F)c(Oc2ncc(Br)cn2)c1Oc1ncc(Br)cn1 [Compound 31]
pest or weed control at 250 g/ha [1]: 50% | pest or weed control at 250 g/ha [2]: 0% | plant injury at 250 g/ha (rice (Oryza sativa)): 0% | pest or weed control at 250 g/ha [3]: 50% | pest or weed control at 31 g/ha [4]: 0% | pest or weed control at 125 g/ha [4]: 20% | pest or weed control at 31 g/ha [5, 19]: 0% | pest or weed control at 125 g/ha ([5]; 0 to 100 scale, read-out: Plant response rating, Barnyardgrass): 70% | pest or weed control at 31 g/ha [6]: 70% | pest or weed control at 125 g/ha [6]: 100% | pest or weed control at 31 g/ha (kochia (Kochia scoparia) [7]): 30% | pest or weed control at 125 g/ha (kochia (Kochia scoparia) [7]): 90% | pest or weed control at 31 g/ha [8]: 40% | pest or weed control at 125 g/ha [8]: 90% | pest or weed control at 31 g/ha [9]: 0% | pest or weed control at 125 g/ha [9]: 0% | pest or weed control at 31 g/ha [10]: 0% | pest or weed control at 125 g/ha [10]: 0% | pest or weed control at 31 g/ha [11]: 10% | pest or weed control at 125 g/ha [11]: 20% | pest or weed control at 31 g/ha [12]: 90% | pest or weed control at 125 g/ha [12]: 90% | Corn plant response rating (crop injury, 0 = no effect, 100 = complete kill) at 31 g/ha (corn (Zea mays)): 20% | Corn plant response rating (crop injury, 0 = no effect, 100 = complete kill) at 125 g/ha (corn (Zea mays)): 30% | pest or weed control at 31 g/ha (kochia (Kochia scoparia) [13]): 20% | pest or weed control at 125 g/ha (kochia (Kochia scoparia) [13]): 80% | pest or weed control at 31 g/ha [14]: 70% | pest or weed control at 125 g/ha [14]: 100% | pest or weed control at 31 g/ha [15]: 20% | pest or weed control at 125 g/ha [15]: 40% | pest or weed control at 31 g/ha [16]: 10% | pest or weed control at 125 g/ha [16]: 30% | plant injury at 31 g/ha [17]: 20% | plant injury at 125 g/ha [17]: 30% | pest or weed control at 31 g/ha [18]: 20% | pest or weed control at 125 g/ha [18]: 30%

N#Cc1cccc(Oc2ncc(Cl)cn2)c1Oc1ccc(Cl)cc1 [Compound 36]
pest or weed control at 250 g/ha [1]: 65% | pest or weed control at 250 g/ha [2]: 0% | plant injury at 250 g/ha (rice (Oryza sativa)): 0% | pest or weed control at 250 g/ha [3]: 95% | pest or weed control at 31 g/ha [4]: 0% | pest or weed control at 125 g/ha [4]: 0% | pest or weed control at 31 g/ha [5, 19]: 0% | pest or weed control at 125 g/ha [5, 19]: 40% | pest or weed control at 31 g/ha [6]: 60% | pest or weed control at 125 g/ha [6]: 100% | pest or weed control at 31 g/ha (kochia (Kochia scoparia) [7]): 10% | pest or weed control at 125 g/ha (kochia (Kochia scoparia) [7]): 50% | pest or weed control at 31 g/ha [8]: 70% | pest or weed control at 125 g/ha [8]: 90% | pest or weed control at 31 g/ha [9]: 0% | pest or weed control at 125 g/ha [9]: 20% | pest or weed control at 31 g/ha [10]: 10% | pest or weed control at 125 g/ha [10]: 20% | pest or weed control at 31 g/ha [11]: 10% | pest or weed control at 125 g/ha [11]: 30% | pest or weed control at 31 g/ha [12]: 90% | pest or weed control at 125 g/ha [12]: 100% | Corn plant response rating (crop injury, 0 = no effect, 100 = complete kill) at 31 g/ha (corn (Zea mays)): 20% | Corn plant response rating (crop injury, 0 = no effect, 100 = complete kill) at 125 g/ha (corn (Zea mays)): 20% | pest or weed control at 31 g/ha (kochia (Kochia scoparia) [13]): 80% | pest or weed control at 125 g/ha (kochia (Kochia scoparia) [13]): 100% | pest or weed control at 31 g/ha [14]: 90% | pest or weed control at 125 g/ha [14]: 100% | pest or weed control at 31 g/ha [15]: 20% | pest or weed control at 125 g/ha [15]: 50% | pest or weed control at 31 g/ha [16]: 0% | pest or weed control at 125 g/ha [16]: 10% | plant injury at 31 g/ha [17]: 0% | plant injury at 125 g/ha [17]: 10% | pest or weed control at 31 g/ha [18]: 20% | pest or weed control at 125 g/ha [18]: 40%
